Earlier results, collected in patent US5086054A, “Novel arylcycloalkanepolyalkylamines” (SRI International, priority 1990, dated 1992).
Entries after “also recorded” stand apart in the source; their conditions may differ.

Key:
[1] = tested on: climbing behavior in mice; details: cited from earlier work
[2] = tested on: conditioned avoidance responses in rat; details: cited from earlier work
σ receptors = details: literature; cited from earlier work
σ receptor = details: rat spinal cord and brain membranes; cited from earlier work
[3] = tested on: postsynaptic dopamine receptors; details: mesolimbic area; cited from earlier work
[4] = clinical trials; cited from earlier work

C[C@@H]1CN(CCCn2c3ccccc3c3ccccc32)C[C@H](C)N1 [rimcazole, cis-9-[3-(3,5-dimethyl-1-piperazinyl)propyl]carbozole]
cataleptic state ([1]; associated with EPS): without producing the cataleptic state | climbing behavior [1]: antagonize climbing behavior in mice | conditioned avoidance responses [2]: did not influence conditioned avoidance responses in rat | affinity / binding at σ receptors (in words) (σ receptors): potent and selective σ receptor ligands; also recorded: high-affinity, σ-selective | inhibition of specific binding of NAN (σ receptor): competitively inhibit specific binding of the σ receptor ligand NAN | action at postsynaptic dopamine receptors [3]: did not exert its action at the level of postsynaptic dopamine receptors in the mesolimbic area | clinical antipsychotic effects [4]: display clinical antipsychotic effects
